Earlier results on one molecule are cited in patent publication US20140316333A1, “DISSOLVING SOLID SOLUTION PERFORATOR PATCH FOR MIGRAINE TREATMENT” (priority 2011, published 2014).

For this data set the following is noted: oral dosage.

As for `CN1C[C@H](C(=O)N[C@]2(C)O[C@@]3(O)[C@@H]4CCCN4C(=O)[C@H](Cc4ccccc4)N3C2=O)C[C@@H]2c3cccc4[nH]cc(c34)C[C@H]21` [DHE, dihydroergotamine], the “time to have efficacy for reducing migraine headache” value was 2 to 3 h. For the same molecule, the “active unchanged drug that reaches the blood stream” value (about 20-30 mg, estimated) was 2-10%.
